The values that follow are results of earlier work, collected in publication PMC12308805, “Ultrahigh-Throughput Virtual Screening Strategies against PPI Targets: A Case Study of STAT Inhibitors” (Journal of Chemical Information and Modeling, 2025).

This data set deals with STAT3. The conditions noted are these: sheet 6QHD_actives_decoys, retrospective screening set for STAT3 SH2 domain (PDB 6QHD); decoys are presumed inactives, not tested; ref DUD-E; cited from earlier work.
On to `CC(=O)[C@@H]1CC[C@H]2[C@H]3CC=C4C[C@@H](O[C@@H]5O[C@H](CO)[C@@H](O)[C@H](O)[C@H]5O[C@@H]5O[C@H](CO)[C@@H](O)[C@H](O)[C@H]5O)CC[C@]4(C)[C@@H]3CC[C@]12C` [Decoy895], for which the Type entry was “Inactive (Decoy)”. Regarding `O=C1N=C([C@]2(C3=Nc4nnc(/N=C(\O)Nc5ccc(Cl)cc5)n4C3=O)Cc3ccccc3C2=O)n2c(/N=C(\O)Nc3ccc(Cl)cc3)nnc21` [Decoy896], the Type result is “Inactive (Decoy)”. As for `CCCOc1ccc([C@@H]2c3c(n[nH]c3-c3cc(C)cc(C)c3O)C(=O)N2CCCOC(C)C)cc1OCC` [Decoy897], the Type entry is recorded as “Inactive (Decoy)”.

In the case of `COc1ccc(CCN/C(=N/c2nc(C)cc(C)n2)NS(=O)(=O)c2ccc(Br)cc2)cc1OC` [Decoy898], the Type result is given as “Inactive (Decoy)”. For `COc1ccc(CCNc2ccc3nnc(CCNS(=O)(=O)c4ccccc4OC)n3n2)cc1OC` [Decoy899], the Type entry is “Inactive (Decoy)”. On to `COc1ccccc1OCCNC[C@H](O)COc1cccc2c1c1ccccc1n2C[C@H](O)COc1cccc2[nH]c3ccccc3c12` [Decoy900], for which the Type entry is “Inactive (Decoy)”. As to `Cc1cc(C)nc(N/C(=N/C(=O)Nc2cccc(Cl)c2)NCCSCc2[nH]cnc2C)n1` [Decoy901], the Type entry is listed as “Inactive (Decoy)”. As to `CCc1ccc2c(c1)[C@@]1(N[C@@H](Cc3ccc(O)c(O)c3)[C@H]3C(=O)N(CCc4ccc(OC)c(OC)c4)C(=O)[C@H]31)C(=O)N2` [Decoy902], the Type entry is given as “Inactive (Decoy)”. With `COc1cc(-c2ccc(NC(=O)c3ccc(OC)c(OC)c3)c(OC)c2)ccc1NC(=O)c1ccc(OC)c(OC)c1` [Decoy903], the Type result is reported as “Inactive (Decoy)”. `Cc1noc(C)c1CSc1ncccc1C(=O)O[C@H](C)C(=O)Nc1sccc1C(N)=O` [Decoy904]: the Type result is given as “Inactive (Decoy)”. Turning to `CC(C)(CC[C@@H](O)[C@@](C)(O)[C@H]1CC[C@@]2(O)C3=CC(=O)[C@H]4C[C@@H](O)[C@@H](O)C[C@]4(C)[C@@H]3CC[C@]12C)O[C@H]1O[C@@H](CO)[C@@H](O)[C@@H](O)[C@H]1O` [Decoy905], the Type result is recorded as “Inactive (Decoy)”. With `CCN(CC)c1ccc(NC(=O)CSc2n[nH]c(N/N=C/c3cc(OC)c(O)cc3[N+](=O)[O-])n2)cc1` [Decoy906], the Type result was “Inactive (Decoy)”. For the compound `CCN(CC)C(=O)c1c[nH]c2ccc(S(=O)(=O)Nc3ccc4c(c3)OCCO4)cc2c1=O` [Decoy907], the Type result is on record as “Inactive (Decoy)”. As for `CC(=O)O[C@@H]1[C@@H](O)[C@H](CO)O[C@H](O[C@@H](/C=N/c2cnc([N+](=O)[O-])s2)[C@@H](CO)O[C@H](O)/C=N/c2cnc([N+](=O)[O-])s2)[C@@H]1O` [Decoy908], the Type entry is recorded as “Inactive (Decoy)”. Turning to `CC(=O)O[C@H]1[C@@H](O)[C@@H](O[C@@H](/C=N\c2cnc([N+](=O)[O-])s2)[C@@H](CO)O[C@H](O)/C=N/c2cnc([N+](=O)[O-])s2)O[C@@H](CO)[C@H]1O` [Decoy909], the Type result is on record as “Inactive (Decoy)”. Take `COc1cc([C@H]2OC[C@H]3[C@@H]2CO[C@H]3c2ccc(O[C@@H]3O[C@H](CO[C@@H]4O[C@@H](C)[C@H](O)[C@@H](O)[C@H]4O)[C@@H](O)[C@H](O)[C@H]3O)c(OC)c2)ccc1O` [Decoy911]: the Type entry is on record as “Inactive (Decoy)”. As for `O=C(CNS(=O)(=O)c1ccc(NC(=S)Nc2ccc([N+](=O)[O-])cc2)cc1)c1ccccc1` [Decoy913], the Type result was “Inactive (Decoy)”. `COC(=O)c1sc(NC(=O)CCCS(=O)(=O)c2nc(-c3ccc(OC)c(OC)c3)cc(C(F)(F)F)n2)c(C(N)=O)c1C` [Decoy915]: the Type result is “Inactive (Decoy)”. Turning to `CCOC(=O)c1sc(NC(=O)CSc2n[nH]c(N/N=C/c3ccc(C)cc3)n2)c(C#N)c1C` [Decoy916], the Type entry is recorded as “Inactive (Decoy)”. Consider `CCC(CC)C(=O)Nc1cccc(C(=O)Nc2ccc(S(=O)(=O)Nc3nccc(C)n3)cc2)c1` [Decoy917], for which the Type entry is listed as “Inactive (Decoy)”. Take `Cc1ccc(S(=O)(=O)Nc2ccc(N3CCN(CC(=O)NCC(C)C)CC3)cc2C(=O)O)cc1` [Decoy918]: the Type result is recorded as “Inactive (Decoy)”.

Turning to `CCn1cc([C@@H](C)NC(=S)Nc2ccc(S(=O)(=O)Nc3ncccn3)cc2)c(C)n1` [Decoy919], the Type entry was “Inactive (Decoy)”. Consider `C=CCOC(=O)c1sc(NC(=O)[C@@H](CC)n2c(N)nnc2SCc2ccccc2Cl)nc1C` [Decoy920], for which the Type entry was “Inactive (Decoy)”. As to `COc1ccc(CNc2nc(NCc3ccc(OC)c(OC)c3)n(C(=O)c3ccc(C(C)(C)C)cc3)n2)cc1OC` [Decoy921], the Type result is recorded as “Inactive (Decoy)”.

`Cc1ccc(S(=O)(=O)Nc2ccccc2/C=N/CC(O)C/N=C/c2ccccc2NS(=O)(=O)c2ccc(C)cc2)cc1` [Decoy922]: the Type result is given as “Inactive (Decoy)”. Regarding `COc1ccc(NC(=O)CSc2nnc(NC(=O)c3cc(OC)c(OC)c(OC)c3)s2)cc1OC` [Decoy923], the Type entry is recorded as “Inactive (Decoy)”. In the case of `C=CCSc1ccccc1NC(=O)CSc1nnc(N/N=C/c2c(O)ccc3ccccc23)n1N` [Decoy924], the Type result was “Inactive (Decoy)”. For the compound `CCCCN/N=C(C(=O)OC)/C(C(=O)OC)=C(\O)C(=O)Nc1nc2ccc([N+](=O)[O-])cc2s1` [Decoy925], the Type entry is reported as “Inactive (Decoy)”. In the case of `CO[C@@H]1[C@H](O)[C@H](OC[C@H]2O[C@@H](O[C@@H]3CC[C@]4(C)[C@H](CC[C@@H]5[C@@H]4CC[C@@]4(C)[C@@H](C6=CC(=O)OC6)CC[C@]54O)C3)[C@@H](O)[C@@H](O)[C@H]2O)O[C@@H](C)[C@@H]1O` [Decoy926], the Type result is reported as “Inactive (Decoy)”. Take `COc1cc(-c2nnc(SCC(=O)N/N=C/c3cc(OC)c(OC(C)=O)c(OC)c3)n2-c2ccccc2)cc(OC)c1OC` [Decoy928]: the Type entry is “Inactive (Decoy)”.

With `C=CCO[C@@H]1[C@H]2OC(C)(C)O[C@H]2O[C@@H]1[C@H](O)Cn1c(=O)n(C[C@@H](O)[C@H]2O[C@@H]3OC(C)(C)O[C@@H]3[C@H]2OCC=C)c2cc(C)ccc21` [Decoy929], the Type result was “Inactive (Decoy)”. For the compound `CC1(C)CC[C@]2(C(=O)O[C@@H]3O[C@H](CO)[C@@H](O)[C@H](O)[C@H]3O)CC[C@]3(C)C(=CC[C@H]4[C@@]5(C)CC[C@H](O[C@H]6OC[C@@H](O)[C@@H](O)[C@@H]6O)[C@@](C)(CO)[C@H]5CC[C@]43C)[C@@H]2C1` [Decoy930], the Type entry was “Inactive (Decoy)”. As to `CC(=O)N[C@H]1[C@@H](OC(=O)CCn2c(=O)oc3ccccc32)O[C@@H](COC(C)=O)[C@@H](OC(C)=O)[C@H]1OC(C)=O` [Decoy931], the Type result is “Inactive (Decoy)”.

As to `Cc1cc(C)cc(NC(=O)COc2ccc(S(=O)(=O)Nc3ccc(C(=O)O)cc3)cc2[N+](=O)[O-])c1` [Decoy932], the Type entry was “Inactive (Decoy)”. With `CCOc1ccc(NC(=O)CSC2=C(C#N)[C@@H](c3ccco3)C(C(=O)Nc3cc(OC)ccc3OC)=C(C)N2)cc1` [Decoy933], the Type result was “Inactive (Decoy)”.

For the compound `CCOC(=O)c1c(NC(=O)CCSc2nnc(COC)n2N)sc2c1CCCC2` [Decoy934], the Type result is listed as “Inactive (Decoy)”. For the compound `C/C=C(/C[C@H](O)N(C=O)Cc1cnc(C)nc1N)SS/C(=C/C)C[C@@H](O)N(C=O)Cc1cnc(C)nc1N` [Decoy935], the Type result is recorded as “Inactive (Decoy)”. Consider `COc1ccccc1OCCNC[C@@H](O)Cn1c2ccccc2c2c(OC[C@@H](O)CNCCOc3ccccc3OC)cccc21` [Decoy936], for which the Type result was “Inactive (Decoy)”.

With `CCN(CC)c1ccc(/C=N/Nc2nc(SCC(=O)n3nc(C)cc3C)n[nH]2)c(O)c1` [Decoy937], the Type entry is on record as “Inactive (Decoy)”. Regarding `CCOC(=O)CCCCC(=O)c1[nH]c(=O)[nH]c1CSc1nnc2c3ccccc3n(CCc3ccccc3)c2n1` [Decoy938], the Type result is on record as “Inactive (Decoy)”. As for `Cc1ccc(S(=O)(=O)NCCc2nnc(NC(=O)CSCc3ccc([N+](=O)[O-])cc3)s2)cc1` [Decoy939], the Type entry is listed as “Inactive (Decoy)”.

`COc1cc(Cc2cc(OC)c(OC)cc2NS(=O)(=O)c2ccc3c(c2)NC(=O)CO3)c(NS(=O)(=O)c2ccc3c(c2)NC(=O)CO3)cc1OC` [Decoy940]: the Type result is given as “Inactive (Decoy)”. In the case of `COc1c(O)ccc(/C=N/NC(=O)/C(=C\c2ccc(N(C)C)cc2)NC(=O)c2ccccc2)c1[N+](=O)[O-]` [Decoy941], the Type result is reported as “Inactive (Decoy)”.

`CCC/C=C/[C@@H](C(=O)NCS(=O)(=O)c1ccc(C)cc1)N(Cc1ccco1)C(=O)c1c(O)cccc1O` [Decoy942]: the Type entry was “Inactive (Decoy)”.

As for `CO[C@H]1C[C@H](O[C@H]2CC[C@]3(C=O)[C@H]4CC[C@]5(C)[C@@H](C6=CC(=O)OC6)CC[C@]5(O)[C@@H]4CC[C@]3(O)C2)O[C@H](C)[C@H]1O[C@H]1O[C@H](CO)[C@@H](O)[C@H](O)[C@H]1O` [Decoy943], the Type result is on record as “Inactive (Decoy)”. Turning to `COc1ccc2[nH]cc(CCN/C(=N/C(=O)/C=C/c3cc(OC)c(OC)c(OC)c3)Nc3nc(C)cc(C)n3)c2c1` [Decoy944], the Type entry is on record as “Inactive (Decoy)”. `C[C@@H](NC(=O)[C@@H](N)Cc1ccc(O)cc1)C(=O)NCC(=O)N[C@@H](Cc1ccccc1)C(=O)NNC(=O)[C@H](Cc1ccccc1)NC(=O)CNC(=O)[C@@H](C)NC(=O)[C@@H](N)Cc1ccc(O)cc1` [Decoy945]: the Type result is recorded as “Inactive (Decoy)”. For the compound `Nc1ncnc2c1ncn2[C@@H]1O[C@H](CO[P@](=O)(O[C@H](CO)[C@@H](O)[C@H](O)[C@@H](O)C=O)OP(=O)(O)O)[C@@H](O)[C@H]1O` [Decoy946], the Type result was “Inactive (Decoy)”. In the case of `CCCOc1cccc(C(=O)NC(=S)Nc2ccc(S(=O)(=O)Nc3cc(OC)ncn3)cc2)c1` [Decoy947], the Type entry is “Inactive (Decoy)”. Regarding `Cc1ccc(C)c(NC(=O)CCC(=O)N/N=C(/S)NC(=O)c2ccccc2[N+](=O)[O-])c1` [Decoy948], the Type result is reported as “Inactive (Decoy)”.

On to `OC[C@@H]1O[C@H](O[C@H]2O[C@H](CO)[C@H](O)[C@H](OCc3ccccc3)[C@@H]2OCc2ccccc2)[C@H](OCc2ccccc2)[C@H](OCc2ccccc2)[C@@H]1O` [Decoy949], for which the Type result is recorded as “Inactive (Decoy)”. Regarding `CCCCN(CC)S(=O)(=O)c1cc([N+](=O)[O-])ccc1NN/C=C1/C(=O)N=C(O)NC1=O` [Decoy950], the Type entry is recorded as “Inactive (Decoy)”.
